Like-named read-outs stand apart in the source and are kept apart here.
Legend:
[1] = system: MIL-resistant L. tropica promastigotes; test: Growth inhibition assay (MTT) against MIL-resistant line; type: cell-based, Leishmania tropica; conditions: 72 h; for IC50: Leishmania tropica, read-out: MIL Resistant L. tropica IC50 (μM± SD); for MIL Resistant L. tropica IC50 (μM± SD): miltefosine-unresponsive strain, promastigotes
Experimental: (§1) The promastigotes in their log phase were used in 96-well plates. 1 × 10^6 wild-type and resistant promastigotes were dispensed in 96 96-well plates, and incubated with tested compounds at a range concentration of 200–10 μM at 27°C for 72 h. After incubation of 72 h, MTT dye (3-(4,5-dimethylthiazol-2-yl)-2,5-diphenyl-2H-tetrazolium bromide) was added and further incubate it for 3–4 h. Amphotericin B, pantamidine and miltefosine were used as the positive control, untreated promastigotes were used as negative control moreover DMSO control was also added in the study as a stock solution of the compounds that were prepared in DMSO. All the experiments were performed in triplicates. After completion of the experiment the absorbance by Multiskan ascent plate reader at 452 nm and percent inhibition was calculated by the following formula.
(§2) Cytotoxic concentration (%) = [100- (Absorbance of test)/ (Absorbance of solvent control) ×100] %.
Promastigote cultures tL. tropica (Clinical isolates) were maintained at 26°C in RPMI-1640 medium containing 15% FBS and 1% penicillin–streptomycin mixture.
Generation of miltefosine-unresponsive strain was carried under high MIL pressure by in vitro passage with a stepwise increase in the MIL concentration. At each step, parasites were cultured and passaged every 3–4 days at an initial concentration of 5x10^5 promastigotes/mL in order to achieve -stable growth as compared to the wildtype isolate. Growth rates were measured for resistant populations and compared with the WT strain. Parasites were counted at an initial concentration of 5x10^5 parasites/mL and growth was measured daily using a Neubauer chamber until the population reached the stationary phase. Furthermore, the fluorescence microscopic investigations via DAPI stain were also carried out to supplement the study.

[2] = system: L. major promastigotes; test: Promastigote growth inhibition assay (MTT), L. major; type: cell-based, Leishmania major; conditions: for anti-leishmanial activity against promastigotes of L. major (in words): in vitro; for L. major IC50 (μM± SD) / IC50: 72 h; for IC50: Leishmania major
Experimental: (§3) L. major and L. tropica (Clinical isolates) promastigotes were grown at […] in RPMI-1640 (Sigma) medium containing 10% of heat-inactivated (56°C for 30 min) fetal bovine serum. Cell viability was initially evaluated by wet mount method by observing the live cells under compound microscope. Parasite growth was assessed by counting live / motile promastigotes in a Neubauer chamber. Viable cell count was used for the further experimentations (treatments).
as §1, §2

[3] = system: 3T3 (mouse fibroblast) cells; test: Cytotoxicity (MTT) against 3T3 cell line; type: cell-based; conditions: for IC50: Mus musculus, Fibroblast, read-out: 3T3 (mouse fibroblast) IC50 (μM ± SD); for L. tropica SI (CC50/ IC50): CC50 3T3 cell line / IC50 L. tropica; for 3T3 Cell line CC50 (μM± SD): pure compounds, mouse fibroblast, 48 h
Experimental: (§4) The cytotoxicity of the test compounds against normal cell lines was evaluated through MTT (3-[4, 5-dimethylthiazole-2-yl]-2, 5-diphenyl-tetrazolium bromide] colorimetric assay in 96-well flat-bottomed microplates. The 3T3 (mouse fibroblast) and BJ (human fibroblast) were cultured Dulbecco’s Modified Eagle Medium, supplemented with 5% of fetal bovine serum (FBS), 100 IU/mL of penicillin and 100 μg/mL of streptomycin in 75 cm2 flasks, and then incubated in 5% CO2 incubator at 37°C. The growing cells were counted by using a haemocytometer, and diluted with the particular medium. The 5x10^4 cells/mL of the cell culture was prepared, and a sample […] was introduced into each well. The medium was removed after overnight incubation, and 200 μL of fresh medium was added with different concentrations of compounds (1–30 μM). After 48 hours, 200 μL MTT (0.5 mg/mL) was added, and the incubation was further continued for 4 hrs. After that time, 100 μL of DMSO was added to each well. The absorbance was measured using a micro plate reader (Spectra Max Plus, Molecular Devices, CA, USA) at 570 nm for the extent of MTT reduction to formazan within the cells. The cytotoxicity was recorded as CC50 against cells by using Soft- Max Pro software. Doxorubicin and cycloheximide were used as positive control. The experiments were run in triplicate.

[4] = Cytotoxicity (MTT) against 3T3 cell line; type: cell-based, mouse; conditions: pure compounds; mouse fibroblast, 48 h; read-out: 3T3 Cell line CC50 (μM± SD)
Experimental: as §4

[5] = system: L. tropica promastigotes; test: Promastigote growth inhibition assay (MTT), L. tropica clinical isolates; type: cell-based, Leishmania tropica; conditions: for L. tropica IC50 (μM± SD) / IC50: 72 h; for IC50: Leishmania tropica
Experimental: as §3, §1, §2

[6] = system: BJ (human fibroblast) cells; test: Cytotoxicity (MTT) against BJ cell line; type: cell-based; conditions: for IC50: Homo sapiens, Fibroblast, read-out: BJ (human fibroblast) IC50 (μM± SD); for BJ cell line CC50 (μM± SD): pure compounds, human fibroblast, 48 h; for L. tropica SI (CC50/ IC50): CC50 BJ cell line / IC50 L. tropica
Experimental: as §4, with “The medium was removed after overnight incubation, and 200 μL of fresh medium was added with different concentrations of compounds (1–30 μM).” left out

[7] = Cytotoxicity (MTT) against BJ cell line; type: cell-based, human; conditions: pure compounds, human fibroblast, 48 h, read-out: BJ cell line CC50 (μM± SD)
Experimental: as §4, with “The medium was removed after overnight incubation, and 200 μL of fresh medium was added with different concentrations of compounds (1–30 μM).” left out

[8] = pure compounds, standard drugs, promastigotes
[9] = pure compounds, standard drugs, promastigotes, clinical isolate
[10] = extracts, fractions, standard drugs, promastigotes, read-out: L. major IC50 (μg/ml ± SD)
[11] = pure compounds, standard drugs, promastigotes, read-out: L. major IC50 (μM± SD)
[12] = extracts, fractions, standard drugs, promastigotes, read-out: L. tropica IC50 (μg/ml ± SD)
[13] = pure compounds, standard drugs, promastigotes, clinical isolate, read-out: L. tropica IC50 (μM± SD)
[14] = CC50 3T3 mouse fibroblast cell line / IC50 L. major
[15] = CC50 BJ fibroblast cell line / IC50 L. major
[16] = read-out: L. major IC50 (μM± SD)
[17] = CC50 3T3 mouse fibroblast cell line / IC50 L. tropica
[18] = CC50 BJ fibroblast cell line / IC50 L. tropica
[19] = read-out: L. tropica IC50 (μM± SD)

Structure (SMILES)	anti-leishmanial activity against promastigotes of L. major (in words) [2]	L. major IC50 (μM± SD) [2, 8]	L. tropica IC50 (μM± SD) [5, 9]	CC50 [7]	IC50 [2, 10]	IC50 [2, 11]	IC50 [5, 12]	IC50 [5, 13]	MIL Resistant L. tropica IC50 (μM± SD) [1]	L. major SI (CC50/ IC50) [2, 15]	L. tropica SI (CC50/ IC50) [5, 18]	IC50 [5, 19]	CC50 at 48 h [7]	3T3 (mouse fibroblast) IC50 (μM ± SD) ([3]; cytotoxicity of compounds 1-9)	3T3 Cell line CC50 (μM± SD) [3]	BJ (human fibroblast) IC50 (μM± SD) ([6]; cytotoxicity of compounds 1-9)	further results
CCOC12CC=CC(=O)C1(C)C1CCC3(O)C(=O)OC4(C)C5CC6(C)C(COC7(OC34C6C7=O)C1CC2O)C(=O)O5 (stereo not drawn) [Compound 4, 5α-ethoxy-6ß-hydroxy-5,6-dihydrophysalin B]	no significant activity	Inactive	Inactive	14.2 ± 0.8 µM													IC50 [1]: 74.7 ± 0.81 µM; IC50 ([3]; cytotoxicity of compounds 1-9): 19.6 ± 0.8 µM; CC50 [4]: 19.6 ± 0.8 µM; IC50 ([6]; cytotoxicity of compounds 1-9): < 50 µM
CCCCCCCCCCCCCCCCOP(=O)([O-])OCC[N+](C)(C)C [Miltefosine, reference compound]					10.4 ± 0.42 µg/mL	25.6 ± 1.03 µM	17.4 ± 0.42 µg/mL	42.8 ± 1.03 µM									BJ cell line CC50 (μM± SD) [6]: non-toxic
CC12CC3OC(=O)C1COC14OC5(C2C1=O)C(O)(CCC1C4CC2OC24CC=CC(=O)C14C)C(=O)OC35C (stereo not drawn) [Compound 3, 5β, 6β-epoxyphysalin B]									inactive	7.34	1.48	18.5 ± 0.28 µM	27.6 µM				L. major SI (CC50/ IC50) [2, 14]: 0.19; IC50 [2, 16]: 3.76 ± 0.85 µM; L. tropica SI (CC50/ IC50) [3]: 0.038; IC50 [3]: 0.72 ± 0.5 µM; CC50 at 48 h [4]: 0.72 ± 0.5 µM; L. tropica SI (CC50/ IC50) [5, 17]: 0.038; L. tropica SI (CC50/ IC50) [6]: 1.48; IC50 [6]: 10.8 ± 1.5 µM
C=C1C(=O)OC2CC1(C)C1C(=O)C3(O)OC14C(O)(CCC1C3CC3OC35CC=CC(=O)C15C)C(=O)OC24C (stereo not drawn) [Compound 6, 5β, 6β-epoxyphysalin C]	no significant activity			> 100 µM		84.8 ± 1.56 µM		23.8 ± 1.1 µM	inactive	1.19	4.20						L. major SI (CC50/ IC50) [2, 14]: 0.007; L. tropica SI (CC50/ IC50) [3]: 0.025; IC50 ([3]; cytotoxicity of compounds 1-9): 0.6 ± 0.04 µM; CC50 [4]: 0.6 ± 0.04 µM; L. tropica SI (CC50/ IC50) [5, 17]: 0.025; L. major SI (CC50/ IC50) ([6]; CC50 BJ cell line / IC50 L. major): 1.19; IC50 ([6]; cytotoxicity of compounds 1-9): 10.4 ± 1 µM
C[C@@]12C[C@H]3OC(=O)[C@@H]1CO[C@@]14O[C@]5([C@H]2C1=O)[C@@](O)(CC[C@H]1[C@H]4C[C@@H](O)[C@@]2(O)CC=CC(=O)[C@]12C)C(=O)O[C@@]35C [Compound 9, Physalin D]	no significant activity	inactive							inactive			55.24 ± 0.01 µM	> 100 µM	Non cytotoxic	Non cytotoxic	Non cytotoxic	
C[C@]12C(=O)C=CC=C1[C@@H](O)C[C@@H]1[C@@H]2CC[C@@]2(O)C(=O)O[C@@]3(C)[C@H]4C[C@]5(C)[C@@H](CO[C@@]16O[C@]23[C@H]5C6=O)C(=O)O4 [Compound 7, Physalin G]	no significant activity											19.49 ± 0.02 µM	> 100 µM	Non cytotoxic	Non cytotoxic	Non cytotoxic	IC50 [1]: 39.4 ± 0.65 µM; IC50 [2, 16]: 52.3 ± 1.18 µM
C[C@@H]1[C@H](O)[C@@H](C)/C=C/C=C/C=C/C=C/C=C/C=C/C=C/[C@H](O[C@@H]2O[C@H](C)[C@@H](O)[C@H](N)[C@@H]2O)C[C@@H]2O[C@](O)(C[C@@H](O)C[C@@H](O)[C@H](O)CC[C@@H](O)C[C@@H](O)CC(=O)O[C@H]1C)C[C@H](O)[C@H]2C(=O)O [Amphotericin B, reference compound]					3.14 ± 0.04 µg/mL	3.39 ± 0.043 µM	3.16 ± 0.04 µg/mL	3.42 ± 0.04 µM		4.37	4.69						L. tropica SI (CC50/ IC50) [6]: 4.69; CC50 at 48 h ([7]; BJ fibroblast cells): 16.1 µM
CC12C(=O)C=CC=C1C(O)CC1C(=O)C3=NCC4C(=O)OC5CC4(C)C3C3(O)C(O)(CCC12)C(=O)OC53C (stereo not shown) [Compound 1, Aminophysalin B]	no significant activity	Inactive	Inactive											Non cytotoxic		Non cytotoxic	BJ cell line CC50 (μM± SD) [6]: Non cytotoxic
CC12CC3OC(=O)C1COC14OC5(C2C1=O)C(O)(CC(O)C1C4CC(O)C24C=CC(OO2)C(=O)C14C)C(=O)OC35C (stereo not shown) [Compound 8, Physalin K]	no significant activity	inactive	inactive	> 100 µM					inactive					Non cytotoxic	Non cytotoxic	Non cytotoxic	
N=C(N)c1ccc(OCCCCCOc2ccc(C(=N)N)cc2)cc1 [Pentamidine, reference compound]					9.25 ± 0.005 µg/mL	27.2 ± 0.015 µM	9.25 ± 0.005 µg/mL	27.2 ± 0.01 µM									
